Results: paper PMC4481117 (Molecular Pain, 2015)

Key:
αMI-domain = αMI-domain binding to cellulose-bound peptide libraries (SPOT, autoradiography, densitometry); settings: for Densitometry, % (αMI-domain binding): 9-mer peptides, 3-residue offset, N-acetylated, cellulose-bound via (β-Ala)2, 10 μg/ml 125I-labeled αMI-domain (active form), TBS 1 mM MgCl2, percentage of binding to peptide #1 (100 %); for αMI-domain binding (in words): cellulose-bound 9-mer libraries, 125I-labeled αMI-domain
Description: Fig. 1 Screening of the peptide library spanning the sequence of dynorphin AB for αMI-domain binding. a, Amino acid sequence of dynorphin AB (residues 1–32). b, Cellulose membrane with the assembled peptide library consisting of 9-mer peptides with three-residue offset was incubated with ^125I-labeled αMI-domain and subjected to autoradiography followed by densitometry. The αMI-domain binding was observed as dark spots. Spot #10 contains only the β-Ala spacer. The αMI-domain binding was expressed as a percentage of binding to peptide #1, which was assigned a value 100 % and is shown as the numbers on the right of each sequence. The peptide energies that serve as a measure of probability each peptide can interact with the αMI-domain were calculated as described TEXT PRINTED IN THE PICTURE: (B) 1 ([…]): Densitometry, %: 100; Energy, J/mole: -13824 | (B) 2 ([…]): Densitometry, %: 100; Energy, J/mole: -17197 | (B) 3 ([…]): Densitometry, %: 75; Energy, J/mole: -9119 | (B) 4 ([…]): Densitometry, %: 60; Energy, J/mole: -650 | (B) 5 ([…]): Densitometry, %: 40; Energy, J/mole: -2880 | (B) 6 ([…]): Densitometry, %: 90; Energy, J/mole: -5355 | (B) 7 ([…]): Densitometry, %: 90; Energy, J/mole: -12541 | (B) 8 ([…]): Densitometry, %: 100; Energy, J/mole: -12344 | (B) 9 ([…]): Densitometry, %: 100; Energy, J/mole: -9738 | (B) 10 (β-alanine control): Densitometry, %: 0 | (B) Control peptide ([…]): Energy, J/mole: 11107
Peptide libraries derived from dynorphin AB assembled on cellulose membrane supports were prepared by parallel spot synthesis as previously described. Peptides were COOH-terminally attached to cellulose via a (β-Ala)2 spacer and were acetylated N-terminally. The membrane-bound peptides were tested for their ability to bind the αMI-domain according to a previously described procedure. In brief, the membrane was blocked with 1 % BSA and then incubated with 10 μg/ml of ^125I-labeled αMI-domain in TBS containing 1 mM MgCl2. After washing, the membrane was dried and the αMI-domain binding was visualized by autoradiography.
Additional file 1: Figure S1. Identification of residues in dynorphin A critical for α MI-domain binding. The dynorphin AB-based substitutional peptide libraries with single, double or triple mutations of basic residues were prepared by SPOT synthesis as described in Experimental Procedures. Mutated amino acid residues are shown in red. The membranes with synthesized peptide libraries were incubated with ^125I-labeled α MI-domain and subjected to autoradiography. The α MI-domain binding was analyzed by densitometry and expressed in arbitrary units with the strongest binding to wild-type peptides assigning a value of 4+. The peptides that partially lost their ability to bind the α MI-domain were grouped according to their activity and marked as 3+, 2+ and +. The peptides that lost their ability to bind the α MI-domain are marked with “NB “.

Mac-1 = Mac-1 mediated cell adhesion, effect of naloxone; format: cell-based; settings: control experiments, not shown
IC-21 macrophages = test: Phagocytosis of Dyn A-coated latex beads by IC-21 macrophages; format: cell-based, murine; settings: heparin 20 μg/ml, naloxone 10 μM, rat IgG2b isotype control
Description: Fig. 8 Effect of Dyn A on phagocytosis of latex beads. a, Fluorescent latex beads (1x10^9/ml) were preincubated with Dyn A (50 μg/ml) for 40 min at 37 °C. Soluble peptide was removed from the beads by high-speed centrifugation. Peptide-coated beads were incubated with adherent IC-21 macrophages for 30 min at 37 °C. Nonphagocytosed beads were removed from cells by washing with PBS. […] Rat IgG2b was used as an isotype control for anti-αM mAb M1/70. Phagocytosis was quantified for five random fields per well using a 20x objective. Phagocytosis of Dyn A-treated beads was assigned as 100 %.
A suspension of fluorescent […] latex beads (1x10^9/ml) (FluoSpheres sulfate microspheres, Life Technologies, Carlsbad, CA) was incubated with 50 μg/ml of Dyn A for 40 min at 37 °C, then unbound peptide was removed by centrifugation. IC-21 murine macrophages (5 × 10^5/ml) were adhered on the cover glass for 30 min and 3 × 10^6 of peptide-coated beads were added to adherent IC-21 cells. After incubating for 30 minutes at 37 °C, nonphagocytosed beads were separated from macrophages by washing with 3x1 ml PBS and phagocytosed beads were counted in the presence of trypan blue. […] The ratio of beads per macrophage was quantified by taking photographs of five fields for each well using a Leica DM4000 B microscope (Leica Microsystems, Buffalo Grove, IL) with a 20 × objective.

U937 monocytic cells = test: Chemotaxis migration assay of U937 cells to Dyn A agarose gel; format: cell-based, human
Description: Fig. 7 Chemotactic response of U937 cells to Dyn A. a, schematic representation of the experimental format. U937 cells (5x10^4) were placed in the center of the coverslip between two agar gels, one containing Dyn A and control gel without Dyn A. After 2 h at 37 °C, a series of photographs was taken in the direction of migration at 1-mm intervals to count the number of migrating cells. b , representative images after 2 h of migration show the cells within the starting point (marked with a cross; right panels) and at the border of the Dyn A-containing agar drop (left panels). […] Two bottom panels show the experimental condition with no Dyn A gradient. c, quantification of U937 cells migrated from the initial point after 2 h based on the results shown in A (right panel). Migration of control untreated U937 cells that completely migrated from the initial point of cell placement was assigned a value of 100 %. In contrast, there was no cell migration without a Dyn A gradient (0 %). […] A representative experiment is shown. d, distribution of U937 cells between two gels: Dyn A-containing (on the left) and without Dyn A (on the right). “0” on abscissa corresponds to the initial point where cells were loaded and the numbers show the distance that cells migrated in both directions from the starting point. All cells in each of 10 consecutive fields towards the Dyn A-containing and empty gels were counted and plotted as a distance from the starting point
Chemotaxis assays using U937 monocytic cells were performed on 22 × 22 mm cover slips. 1 % agarose (Life Technologies, Carlsbad, CA) was dissolved in HBSS by heating. After cooling, the agarose solution was mixed with Dyn A to obtain a final concentration of 10 μM. A 10 μl drop of warm agarose solution containing Dyn A was placed at one corner of the cover glass at ~1.5 mm from the edge. A control agarose drop was placed diagonally at the opposite corner of the cover glass. Agarose was allowed to solidify for 5 min, and the cover glasses were placed into wells of the 6-well plate filled with 5 ml of RPMI 1640 + 10 % FBS. A 10-μl aliquot of U937 cells (5x10^4) was loaded in the center of the cover glass and the plate was incubated for 2 h at 37 °C in a humidified atmosphere containing 5 % CO2. In this experimental format, the cells sediment approximately 5 min after loading, forming an ~4 mm circle, and begin to migrate towards the Dyn A-containing agarose drop. […] The photographs were taken at 1-mm intervals in the direction of cell migration towards the dynorphin-containing or control agarose drops without dynorphin A. The number of cells at the starting point and in each of 10 consecutive fields towards the dynorphin-containing and empty gels were counted and plotted as a distance from the starting point.

[1] = system: Mac-1 (Mac-1-HEK293 cells); test: Inhibition of adhesion of Mac-1-HEK293 cells to fibrinogen by soluble peptides; format: cell-based, Human; settings: soluble peptide, 2.5 μg/mL fibrinogen coating
Description: Fig. 4 Effect of soluble Dyn A on Mac-1-mediated cell adhesion to fibrinogen. a (left ordinate), calcein-labeled Mac-1-HEK293 cells were preincubated with different concentrations of dynorphin A (black bar), dynorphin B (open bar) or control peptide (gray bar) for […] at 22 °C and added to the wells of microtiter plates coated with 2.5 μg/mL fibrinogen. Cells were allowed to adhere for 30 minutes at 37 °C before removing nonadherent cells. […] Data are expressed as a percentage of total cell fluorescence
Adhesion assays were performed essentially as described previously. […] Cells were labeled with 10 μM calcein for 30 min at 37 °C and washed twice with Hanks’ Balanced salt solution (HBSS) containing 0.1 % BSA. Aliquots (100 μl) of labeled cells (5x10^5/ml) were added to each well and allowed to adhere for 30 min at 37 °C. The non-adherent cells were removed by two washes with PBS. Fluorescence was measured in a CytoFluorII fluorescence plate reader (Perceptive Biosystems, Framingham, MA). In inhibition experiments, cells were mixed with different concentrations of peptides, NIF or mAbs for 20 min at 22 °C before they were added to the wells coated with adhesive substrates. […] After aspirating the solution, labeled cells were added and cell adhesion was analyzed as above.

[2] = molecular target: T1, Mac-1 (Mac-1-expressing HEK293 cells) (Homo sapiens, UniProt P05107+P11215); test: Adhesion of Mac-1-HEK293 cells to immobilized peptide; format: cell-based; settings: coated wells, calcein-labeled cells, 30 min at 37 °C
T1 construct: expressed in transfected cells
Description: (§1) For testing the role of glucosaminoglycans in cell adhesion, dynorphin A-coated wells were preincubated with 100 μl of 10 μg/ml of chondroitin sulfate A, chondroitin sulfate B and heparin. Aliquots (5x10^4cells) were added to the wells coated with 2 μM dynorphin A and adhesion was performed as described in A. Adhesion in the absence of Mac-1 inhibitors and glucosaminoglycans was assigned a value of 100 %. The data shown are the means ± S.E. from four separate experiments each with triplicate measurements. d , microtiter plate wells were coated with different concentrations of dynorphin B and adhesion of Mac-1-expressing and wild-type HEK293 cells was determined as described in A. The data shown are means of triplicate determinations, and error bars represent S.E. The figure is representative of 5 experiments. e. calcein-labeled Mac-1-HEK293 cells were preincubated without or with 10 μg/ml of mAb 44a and heparin, added to the wells coated with 20 μM of dynorphin B and adhesion was performed as described in A. Adhesion in the absence of inhibitors was assigned a value of 100 %.
(§2) Adhesion assays were performed essentially as described previously. […] Cells were labeled with 10 μM calcein for 30 min at 37 °C and washed twice with Hanks’ Balanced salt solution (HBSS) containing 0.1 % BSA. Aliquots (100 μl) of labeled cells (5x10^5/ml) were added to each well and allowed to adhere for 30 min at 37 °C. The non-adherent cells were removed by two washes with PBS. Fluorescence was measured in a CytoFluorII fluorescence plate reader (Perceptive Biosystems, Framingham, MA). In inhibition experiments, cells were mixed with different concentrations of peptides, NIF or mAbs for 20 min at 22 °C before they were added to the wells coated with adhesive substrates. In a separate set of experiments, after coating plates with dynorphins and post-coating with 1 % PVP, plates were incubated with 100 μl of 10 μg/ml chondroitin sulfate A, chondroitin sulfate B, or heparin for 20 min at 22 °C. After aspirating the solution, labeled cells were added and cell adhesion was analyzed as above.

[3] = system: Mac-1 (Mac-1-HEK293 cells); test: Inhibition of adhesion of Mac-1-HEK293 cells to Dyn A; format: cell-based, Human; settings: 2 μM Dyn A coating; for Inhibition of adhesion to Dyn A in combination with NIF (in words): glycosaminoglycan 10 μg/ml with NIF; for Inhibition of adhesion to Dyn A (in words): wells preincubated with glycosaminoglycan 10 μg/ml, 20 min, alone
Description: as §1, §2

Molecule	Densitometry, % (αMI-domain binding) (αMI-domain) [%]	αMI-domain binding (in words) (αMI-domain)	other results
YGGFLRRIR	100	highest affinities	
C=CCN1CC[C@]23c4c5ccc(O)c4O[C@H]2C(=O)CC[C@@]3(O)[C@H]1C5 [naloxone]			Effect on Mac-1 mediated cell adhesion (Mac-1): does not affect Mac-1 mediated cell adhesion; Effect on Dyn A-mediated phagocytosis (in words) (IC-21 macrophages): did not decrease the number of phagocytosed beads; Mean distance travelled by inhibitor-treated cells (U937 monocytic cells; Dyn A gradient, 2 h, mAb 44a 20 μg/ml or naloxone 10 μM): ~ 5 mm; Migration from initial point blocked (U937 monocytic cells; mAb 44a 20 μg/ml or naloxone 10 μM, 30 min preincubation, 2 h at 37 °C, representative experiment): ~ 20%; Arrival of inhibitor-treated cells at Dyn A-containing drop (U937 monocytic cells; mAb 44a 20 μg/ml or naloxone 10 μM, 2 h): only a few cells arrived; Cells remaining at the start (U937 monocytic cells; naloxone 10 μM, Dyn A gradient, 2 h): ~ 20%
DIDPKLKWD [control peptide, purchased from AnaSpec; also mutant in substitutional library]			Inhibition of adhesion to fibrinogen (in words) [1]: only slightly inhibitory; Adhesion of Mac-1-HEK293 cells (in words) [2]: failed to support adhesion
chondroitin sulfate A			Inhibition of adhesion to Dyn A in combination with NIF (in words) [3]: not exert a statistically significant inhibitory effect; Inhibition of adhesion to Dyn A (in words) [3]: not exert a statistically significant inhibitory effect
heparin			Inhibition of adhesion to Dyn A (in words) [3]: slight inhibition; Effect on Dyn A-mediated phagocytosis (in words) (IC-21 macrophages): did not decrease the number of phagocytosed beads
chondroitin sulfate B			Inhibition of adhesion to Dyn A in combination with NIF (in words) [3]: not exert a statistically significant inhibitory effect; Inhibition of adhesion to Dyn A (in words) [3]: not exert a statistically significant inhibitory effect
FLRRIRPKL	100	highest affinities	
RIRPKLKWD	75	weakened their αMI-domain binding activity	
RYGGFLRRQ	90		
RRQFKVVGG	100		
KWDNQKRYG	40	weakened their αMI-domain binding activity	
NQKRYGGFL	90		
GFLRRQFKV	100		
PKLKWDNQK	60	weakened their αMI-domain binding activity	
